Entries after “also recorded” stand apart in the source; their conditions may differ.
Legend:
[1] = tested on: autophagic vacuoles (AVs); assay: AV accumulation by EM morphometry in PS1KO cells; assay type: cell-based, Murine; conditions: 200 μM, 6 h
Protocol: Following treatments, cells were prepared for EM as previously described and AVs, identified using previous morphological criteria (Yu et al., 2005), were classified and counted on electron micrographs (7900× print magnification) of 20 EM images from different lines in each experimental group.

tau = conditions: rats; bilateral injection into the hippocampus; cited from earlier work
Cat B = Cat B activity by MagicRed-Cathepsin B (MR-Cat B) in PS1KO cells; assay type: cell-based, Murine; conditions: PS1KO cells; 200 μM, 6 h
Protocol: Immunocytochemistry was performed as previously described (Yu et al., 2005). Secondary antibodies used were from Invitrogen: goat anti-mouse/rabbit/rat Alexa Fluor 488 and goat anti-mouse/rabbit/rat Alexa Fluor 568. Cells were imaged using a plan-Apochromat 40× or 100×/1.4 oil DIC objective lens on the laser scanning confocal microscope, LSM 510 META, with LSM software v3.5 (Carl Zeiss MicroImaging Inc). Images were analysed using ImageJ program (NIH). Organelles with low internal pH were labeled by LysoTracker DND-99 dye (Invitrogen) at the final 100 nM for 30 min. Following 4% PFA fixation, cells were further counter stained with Cat D, LMAP1, or LC3 antibody for 4 hrs then visualized with Alexa Fluor 488 conjugated secondary antibody. Active Cat D was labeled by adding Bodipy-FL-pepstatin A directly to the medium at a final concentration of 1 μg/ml for 1 hr. Following 4% PFA fixation, cells were counter stained with Cat D antibody for 4 hrs and visualized with Alexa Fluor 568 conjugated secondary antibody. […] Cells were incubated for 30 min with MR-Cathepsin B prior to mounting them under the confocal microscope. […]
Active Cat D was labeled by adding Bodipy-FL-pepstatin A directly to the medium at a final concentration of 1 mg/ml for 1 hr. […] Cat B staining with MagicRed-Cathepsin B was also measured fluorometrically with a Wallac Victor 2 fluorometer.

[2] = in vivo; cited from earlier work
p62 = p62 accumulation in PS1KO cells; assay type: cell-based, Murine; conditions: 200 μM, 6 h
Protocol: Immunoblotting was performed as previously described (Yu et al., 2005). Briefly, cells used for Western blot analysis were lysed in buffer containing 50 mM Tris (pH=7.4), 150 mM NaCl, 1 mM EDTA, 1 mM EGTA, 1% Triton X-100 and 0.5% Tween-20 with protease and phosphatase inhibitors. Following electrophoresis on 4-20% gradient gel (Invitrogen), proteins were transferred onto 0.45 μm PVDF membranes (Millipore) and the membrane was incubated overnight in primary antibody then incubated with HRP conjugated secondary antibody. The blot was developed by ECL-kit (GE Healthcare). To assess v-ATPase V0a subunit glycosylation, lysate from WT and PS1KO cells were either treated for 24 hrs at 37° C. with PNGase F or O-glycanase using an enzymatic deglycosylation kit according to the manufacturer's instructions (PROzyme) or with Endo H (New England Biolabs) for 24 hrs at 37° C. Total glycoproteins were isolated using Glycoprotein Isolation Kit, ConA according to the manufacturer's instructions (Thermo Scientific).

PS1KO blastocysts = assay: Lysosomal pH measurement with Dextran conjugated Lysosensor Yellow/Blue in PS1KO cells; assay type: cell-based, Murine; conditions: PS1KO cells
Protocol: For results presented in Example 1, quantification of lysosomal pH was determined using Dextran conjugated Lysosensor Yellow/Blue DND-160 (Invitrogen) as follows. Wild Type and PS1KO blastocysts were grown in High Glucose DMEM+15% FBS with antibiotics to ˜90% confluency. Cells were then trypsinized, harvested (1×10^6 cells/ml) and loaded with 1 mg/ml of Lysosensor-dextran for 1 hour at 37° C. with 5% CO2. The cells were then washed 3× in HBSS and aliquoted at […] into a black 96-well microplate. pH calibration was performed according to the protocol established by Diwu et al (Diwu et al., (1999). Chem Biol 6, 411-418). Briefly, wild type and PS1KO blastocysts were treated with 10 μM monensin and 10 uM nigericin in MES buffer (5 mM NaCl, 115 mM KCL, 1.3 mM MgSO4, 25 mM MES), with the pH adjusted to a range from 3.5-7.0. The samples were read in a Wallac Victor 2 fluorimeter (Perkin Elmer) with excitation at 355 nm. The ratio of emission 440/535 nm was then calculated for each sample. The pH values were determined from the linear standard curve generated via the pH calibration samples.
In a more particular embodiment, quantification of lysosomal pH is determined using Dextran conjugated Lysosensor Yellow/Blue (Invitrogen) as follows. 3000 Wild Type and PS1KO blastocysts were seeded in multiple wells of black, clear bottom tissue culture treated 96 well dish and grown in High Glucose DMEM+15% FBS with antibiotics to ˜90% confluency (˜24 hours). 2 ul of 0.5 mg/ml lysosensor-dextran (1:100 dilution of a 5 mg/ml stock) was added and incubated for 1 hour at 37° C. with 5% CO2. The cells were then washed 3× in HBSS. See also methods and results set forth herein below in Example 2. This modified protocol represents an optimized protocol for the purposes set forth herein.
Quantification of lysosomal pH was determined using Dextran conjugated Lysosensor Yellow/Blue (Invitrogen). 3000 Wild Type and PS1KO blastocysts were seeded in multiple wells of black, clear bottom tissue culture treated 96 well dish and grown in High Glucose DMEM+15% FBS with antibiotics to ˜90% confluency (˜24 hours). 2 ul of 0.5 mg/ml lysosensor-dextran (1:100 dilution of a 5 mg/ml stock) was added and incubated for 1 hour at 37° C. with 5% CO2. The cells were then washed 3× in HBSS.
Performed according to the protocol established by Diwu et al (supra). Briefly, wild type and PS1KO blastocysts were treated with 10 uM monensin and 10 uM nigericin in MES buffer (5 mM NaCl, 115 mM KCL, 1.3 mM MgSO4, 25 mM MES), with the pH adjusted to a range from 3.5-7.0 for 7-10 min prior to lysosensor addition (the additional hour in the buffer seems to have no effect), these cells are not washed in HBSS since permeabilization with ionophores makes them susceptible to detachment.
The samples were read in a Wallac Victor 2 fluorimeter (Perkin Elmer) with excitation at 355 nm. The ratio of emission 440 nm/535 nm was then calculated for each sample. pH values were determined from the linear std curve generated via the pH calibration samples.

LC3 puncta = LC3 puncta by LC3 immunocytochemistry in PS1KO cells; assay type: cell-based, Murine; conditions: 200 μM, 6 h
Protocol: Immunocytochemistry was performed as previously described (Yu et al., 2005). Secondary antibodies used were from Invitrogen: goat anti-mouse/rabbit/rat Alexa Fluor 488 and goat anti-mouse/rabbit/rat Alexa Fluor 568. Cells were imaged using a plan-Apochromat 40× or 100×/1.4 oil DIC objective lens on the laser scanning confocal microscope, LSM 510 META, with LSM software v3.5 (Carl Zeiss MicroImaging Inc). Images were analysed using ImageJ program (NIH). Organelles with low internal pH were labeled by LysoTracker DND-99 dye (Invitrogen) at the final 100 nM for 30 min. Following 4% PFA fixation, cells were further counter stained with Cat D, LMAP1, or LC3 antibody for 4 hrs then visualized with Alexa Fluor 488 conjugated secondary antibody. Active Cat D was labeled by adding Bodipy-FL-pepstatin A directly to the medium at a final concentration of 1 μg/ml for 1 hr. Following 4% PFA fixation, cells were counter stained with Cat D antibody for 4 hrs and visualized with Alexa Fluor 568 conjugated secondary antibody. […] Cells were incubated for 30 min with MR-Cathepsin B prior to mounting them under the confocal microscope. To block v-ATPase proton pump activity, ammonium chloride (NH4Cl) was added directly to the medium at a final concentration of 20 mM for 6 hrs prior to LysoTracker addition.

CC(C)NCC(O)c1ccc(O)c(O)c1 (centres unmarked) [isoproterenol]
AV accumulation by EM morphometry (total area occupied by AVs per EM field) [1]: reversed | tau phosphorylation and spatial memory (tau): induces Alzheimer-like hyperphosphorylation of tau and spatial memory defects | Cat B activity as measured by MR-Cat B (Cat B): restored to WT levels | crossing of the blood brain barrier (BBB) [2]: cross the blood brain barrier | p62 accumulation (p62): reversed | lysosomal pH (PS1KO blastocysts; 200 μM, 6 h): restored to WT levels | effect on elevated lysosomal pH in PS1KO cells (PS1KO blastocysts; FIG. 10A/G): normal levels or even hyperacidic levels; also recorded: restored to WT levels | LC3 puncta accumulation determined by LC3 ICC (LC3 puncta): reversed
